Experimental data published in USRE47689E1, “Compounds for treating spinal muscular atrophy” (PTC Therapeutics, Inc., priority 2011, dated 2019).
Where two headings read alike, the source gives them in different places.

Columns and labels:
[1] = test system: SMN2 minigene (full length SMN2 minigene mRNA containing SMN2 exon 7); test: SMN2 minigene mRNA splicing RT-qPCR assay in cultured cells; assay type: cell-based, human; conditions: Homo sapiens, HEK293-H, read-out: EC1.5x for production of full length SMN2 mRNA
Outline: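 Full-length SMN2 minigene mRNA (exon 7 included), minigene-specific and not endogenous SMN, quantified by RT-qPCR multiplexed with GAPDH in stably transfected HEK293H cells after 24 h compound exposure at 37° C. Abundance from efficiency-corrected Ct, normalized to GAPDH and vehicle; EC1.5x reported as star bins.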

Smn protein = Smn protein assay in cultured cells (SMN HTRF); assay type: cell-based, human; conditions: 48 hours; for EC1.5x (concentration giving 1.5-fold Smn protein increase): SMA Type 1 patient fibroblast cells (GM03813), 7-point concentration curve, SMN HTRF, concentration producing 1.5 times Smn protein vs DMSO vehicle control, read-out: EC1.5x for Smn protein expression; for maximum fold (Fold) increase of Smn protein: SMA patient fibroblast cells, 7-point concentration data, fold increase relative to vehicle control (SMN HTRF)
Outline: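 Smn in SMA fibroblast lysates, measured by anti-SMN HTRF after 48 h compound exposure; EC1.5x from fold change over vehicle.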

[2] = HEK293H cells stably transfected with SMN2-A minigene, 24 hours, 7-point concentration curve, 1.5-fold relative to vehicle-treated cells

| melting point | SMILES | EC (1.5-fold) [1, 2] | EC1.5x (concentration giving 1.5-fold Smn protein increase) (Smn protein) | maximum fold (Fold) increase of Smn protein (Smn protein) | EC (1.5-fold) ([1]; 24 h) |
| --- | --- | --- | --- | --- | --- |
| 211 to 215 °C | Cc1cn2cc(-c3cc4ccc(N5CCN(C)[C@@H](C)C5)cc4oc3=O)nc2c(C)n1 [Compound 672, 3-(6,8-dimethylimidazo[1,2-a]pyrazin-2-yl)-7-[(3S)-3,4-dimethylpiperazin-1-yl]-2H-chromen-2-one] | < 0.1 µM | < 300 nM | **** (fold increase between >1.5 and ≤1.65) | – |
| 158 to 160 °C | O=c1oc2cc(N3CCNCC3)ccc2cc1-c1cccc(C(F)(F)F)n1 [Compound 90, 7-(piperazin-1-yl)-3-[6-(trifluoromethyl)pyridin-2-yl]-2H-chromen-2-one] | 0.3 to 1 µM | – | *** (fold increase between >1.35 and ≤1.5) | – |
| 240 to 245 °C | Cc1cn2cc(-c3cc4ccc(N5CCN6CCC[C@@H]6C5)cc4oc3=O)nc2cn1 [Compound 625, 7-[(8aR)-hexahydropyrrolo[1,2-a]pyrazin-2(1H)-yl]-3-(6-methylimidazo[1,2-a]pyrazin-2-yl)-2H-chromen-2-one] | < 0.1 µM | 300 to 1000 nM | *** (fold increase between >1.35 and ≤1.5) | – |
| 236 to 238 °C | O=c1oc2cc(N3CCNCC3)ccc2cc1-c1cn2cccc(F)c2n1 [Compound 149, 3-(8-fluoroimidazo[1,2-a]pyridin-2-yl)-7-(piperazin-1-yl)-2H-chromen-2-one] | 1 to 3 µM | – | *** (fold increase between >1.35 and ≤1.5) | – |
| 221 to 226 °C | Cc1cc(C)c2nc(-c3cc4ccc(N5CCN[C@@H](C)C5)cc4oc3=O)cn2c1 [Compound 425, 3-(6,8-dimethylimidazo[1,2-a]pyridin-2-yl)-7-[(3S)-3-methylpiperazin-1-yl]-2H-chromen-2-one] | 0.1 to 0.3 µM | 1000 to 3000 nM | *** (fold increase between >1.35 and ≤1.5) | – |
| 285 to 287 °C | Cc1cnc2nc(-c3cc4ccc(N5CCCN(C)CC5)cc4oc3=O)cn2c1 [Compound 250, 7-(4-methyl-1,4-diazepan-1-yl)-3-(6-methylimidazo[1,2-a]pyrimidin-2-yl)-2H-chromen-2-one] | 0.1 to 0.3 µM | 1000 to 3000 nM | *** (fold increase between >1.35 and ≤1.5) | – |
| 246 to 256 °C | Cc1cc(F)c2nc(-c3cc4ccc(N5CC6CCC5CN6)cc4oc3=O)cn2c1 (stereo not drawn) [Compound 600, 7-(2,5-diazabicyclo[2.2.2]oct-2-yl)-3-(8-fluoro-6-methylimidazo[1,2-a]pyridin-2-yl)-2H-chromen-2-one] | < 0.1 µM | < 300 nM | ***** (fold increase >1.65) | – |
| 200 to 210 °C | Cc1cn2cc(-c3cc4ccc(N5C[C@@H]6CCCN(CCO)[C@@H]6C5)cc4oc3=O)nc2c(C)n1 [Compound 796, 3-(6,8-dimethylimidazo[1,2-a]pyrazin-2-yl)-7-[(4aS,7aS)-1-(2-hydroxyethyl)octahydro-6H-pyrrolo[3,4-b]pyridin-6-yl]-2H-chromen-2-one] | < 0.1 µM | 300 to 1000 nM | **** (fold increase between >1.5 and ≤1.65) | – |
| 123 to 126 °C | CCc1cc(-c2cc3ccc(CCCN(C)C)cc3oc2=O)cn2cc(C)nc12 [Compound 910, 7-[3-(dimethylamino)propyl]-3-(8-ethyl-2-methylimidazo[1,2-a]pyridin-6-yl)-2H-chromen-2-one] | < 0.1 µM | < 300 nM | ***** (fold increase >1.65) | – |
| 278 to 280 °C | CN1CCN(c2ccc3cc(-c4cn5cccc(F)c5n4)c(=O)oc3c2)CC1 [Compound 150, 3-(8-fluoroimidazo[1,2-a]pyridin-2-yl)-7-(4-methylpiperazin-1-yl)-2H-chromen-2-one] | 0.3 to 1 µM | 3000 to 10000 nM | *** (fold increase between >1.35 and ≤1.5) | – |
| 229 to 232 °C | Cc1cc2cc(-c3cc4ccc(N5CCN(C)CC5)cc4oc3=O)oc2c(C)n1 [Compound 763, 3-(5,7-dimethylfuro[2,3-c]pyridin-2-yl)-7-(4-methylpiperazin-1-yl)-2H-chromen-2-one] | < 0.1 µM | < 300 nM | **** (fold increase between >1.5 and ≤1.65) | – |
| 190 to 200 °C | Cc1cn2cc(-c3cc4ccc(N5CCC6(CCNC6)C5)cc4oc3=O)nc2c(C)n1 (stereo not drawn) [Compound 945, 7-(2,7-diazaspiro[4.4]non-2-yl)-3-(6,8-dimethylimidazo[1,2-a]pyrazin-2-yl)-2H-chromen-2-one] | < 0.1 µM | < 300 nM | ***** (fold increase >1.65) | – |
| 205 to 209 °C | Cc1cn2cc(-c3cc4ccc(N5CCN[C@H](C)C5)cc4oc3=O)cc2c(C)n1 [Compound 668, 3-(1,3-dimethylpyrrolo[1,2-a]pyrazin-7-yl)-7-[(3R)-3-methylpiperazin-1-yl]-2H-chromen-2-one] | < 0.1 µM | < 300 nM | ***** (fold increase >1.65) | – |
| 290 to 300 °C | Cc1cn2cc(-c3cc4ccc(N[C@@H]5CCNC5)cc4oc3=O)nc2c(C)n1 [Compound 564, 3-(6,8-dimethylimidazo[1,2-a]pyrazin-2-yl)-7-[(3R)-pyrrolidin-3-ylamino]-2H-chromen-2-one] | < 0.1 µM | < 300 nM | ***** (fold increase >1.65) | – |
| 206 to 208 °C | Cc1cn2cc(-c3cc4ccc(N5CC[C@@H](N(C)C)C5)cc4oc3=O)cc2cn1 [Compound 693, 7-[(3R)-3-(dimethylamino)pyrrolidin-1-yl]-3-(3-methylpyrrolo[1,2-a]pyrazin-7-yl)-2H-chromen-2-one] | < 0.1 µM | 300 to 1000 nM | **** (fold increase between >1.5 and ≤1.65) | – |
| 217 to 223 °C | Cc1cn2cc(-c3cc4ccc(C5CCN(C6COC6)CC5)cc4oc3=O)nc2c(C)n1 [Compound 855, 3-(6,8-dimethylimidazo[1,2-a]pyrazin-2-yl)-7-[1-(oxetan-3-yl)piperidin-4-yl]-2H-chromen-2-one] | < 0.1 µM | < 300 nM | ***** (fold increase >1.65) | – |
| 275 to 278 °C | Cc1cnc2nc(-c3cc4ccc(N5CCCNCC5)cc4oc3=O)cn2c1 [Compound 378, 7-(1,4-diazepan-1-yl)-3-(6-methylimidazo[1,2-a]pyrimidin-2-yl)-2H-chromen-2-one] | 0.1 to 0.3 µM | – | ** (fold increase between >1.2 and ≤1.35) | – |
| 188 to 190 °C | Cc1cn2cc(-c3cc4ccc(C5=CC(C)(C)NC(C)(C)C5)cc4oc3=O)nc2c(C)n1 [Compound 949, 3-(6,8-dimethylimidazo[1,2-a]pyrazin-2-yl)-7-(2,2,6,6-tetramethyl-1,2,3,6-tetrahydropyridin-4-yl)-2H-chromen-2-one] | < 0.1 µM | < 300 nM | ***** (fold increase >1.65) | – |
| 268 to 272 °C | C[C@@H]1CN(c2cc(F)c3cc(-c4nc5c(F)cccc5o4)c(=O)oc3c2)C[C@H](C)N1 [Compound 367, 7-[(3R,5S)-3,5-dimethylpiperazin-1-yl]-5-fluoro-3-(4-fluoro-1,3-benzoxazol-2-yl)-2H-chromen-2-one] | 0.1 to 0.3 µM | – | *** (fold increase between >1.35 and ≤1.5) | – |
| 192 to 196 °C | Cc1nc(-c2cc3ccc(N4CCCN(C)CC4)cc3oc2=O)cn1-c1ccccn1 [Compound 453, 7-(4-methyl-1,4-diazepan-1-yl)-3-[2-methyl-1-(pyridin-2-yl)-1H-imidazol-4-yl]-2H-chromen-2-one] | 3 to 30 µM | – | * (maximum fold increase of ≤1.2) | – |
| 178 to 180 °C | Cc1ccc2oc(-c3cc4ccc(N5CCN(C)CC5)cc4oc3=O)cc2n1 [Cpd 698, 3-(5-methylfuro[3,2-b]pyridin-2-yl)-7-(4-methylpiperazin-1-yl)-2H-chromen-2-one] | 1 to 3 µM | – | * (maximum fold increase of ≤1.2) | – |

| SMILES | melting point | EC (1.5-fold) [1, 2] | EC1.5x (concentration giving 1.5-fold Smn protein increase) (Smn protein) | maximum fold (Fold) increase of Smn protein (Smn protein) | EC (1.5-fold) ([1]; 24 h) |
| --- | --- | --- | --- | --- | --- |
| Cc1cn2cc(-c3cc4ccc(N[C@@H]5C[C@H]6CCC[C@@H](C5)N6C)cc4oc3=O)nc2c(C)n1 [Compound 702, 3-(6,8-dimethylimidazo[1,2-a]pyrazin-2-yl)-7-{[(3-exo)-9-methyl-9-azabicyclo[3.3.1]non-3-yl]amino}-2H-chromen-2-one] | 279 to 287 °C | – | – | * (maximum fold increase of ≤1.2) | 1 to 3 µM |
